Data published in ChEMBL document CHEMBL4052729, “Discovery of novel dengue virus entry inhibitors via a structure-based approach” (Bioorg Med Chem Lett, 2017).
Converted amounts (≈) assume the structure as drawn.

Experiments:
dengue virus type 2 = test: Antiviral activity against DENV2 infected in human A549 or golden hamster BHK21 cells preincubated with viral inoculum for 30 mins followed by viral inoculum removal after 1 hr and subsequently incubated with fresh medium containing compound and measured 8 hrs post-infection by luciferase reporter gene assay; assay type: functional, cell-based
[1] = Selectivity index, ratio of CC50 for human A549 cells to EC50 for DENV2
[2] = Cytotoxicity against human A549 cells by MTT assay; assay type: cell-based
[3] = Selectivity index, ratio of CC50 for golden hamster BHK21 cells to EC50 for DENV2
[4] = test system: Bovine viral diarrhea virus 1; test: Antiviral activity against BVDV; assay type: functional; settings: Bovine viral diarrhea virus isolates and strains
[5] = Cytotoxicity against golden hamster BHK21 cells by MTT assay; assay type: cell-based, Mesocricetus auratus, BHK-21
[6] = Aqueous solubility of the compound in buffer at pH 6.4 after 48 hrs UV spectroscopy based shake flask method; assay type: physicochemical
[7] = Aqueous solubility of the compound in buffer at pH 2.0 after 48 hrs UV spectroscopy based shake flask method; assay type: physicochemical
[8] = Aqueous solubility of the compound in buffer at pH 7.4 after 48 hrs UV spectroscopy based shake flask method; assay type: physicochemical
[9] = Stability of the compound in pH 7.4 PBS buffer after 24 to 48 hrs by chromatographic method; assay type: physicochemical

Which EC50 (dengue virus type 2) does the source give for O=C(NC(=S)N1CCc2ccccc21)c1ccc(C#Cc2ccccc2)nc1 here?
Its EC50 is 28.7 µM.

What about the “Ratio CC50/EC50” value [1] of the same molecule?
The value was over 4.

What about the CC50 [2] of the same molecule?
Its CC50 is over 100 µM.

What about the “Ratio CC50/EC50” value [3] of the same molecule?
Its value is over 4.

What about the EC50 [4] of the same molecule?
Its EC50 is over 50 µM.

What about the CC50 [5] of the same molecule?
The CC50 was over 100 µM.

With O=C1Nc2ccc(Cl)cc2[C@@](C#CC2CC2)(C(F)(F)F)O1 [EFAVIRENZ] as the molecule, how does the solubility thermodynamic at 48 h [6] read?
The solubility thermodynamic at 48 h was 68.3 µg/mL (≈ 216 µM).

With O=C(Nc1ccccc1OCc1ccc(Cl)c(Cl)c1)c1ccco1 as the molecule, how does the EC50 (dengue virus type 2) read?
The EC50 was 22.7 µM.

What about the “Ratio CC50/EC50” value [1] of the same molecule?
The value was over 5.

And the CC50 [2]?
Its CC50 is over 100 µM.

And the “Ratio CC50/EC50” value [3]?
Its value is over 5.

What about the EC50 [4] of the same molecule?
Its EC50 is over 50 µM.

And the CC50 [5]?
The CC50 was over 100 µM.

For O=C(CSCC(=O)Nc1ccc(OC(F)(F)F)cc1)NNC(=S)Nc1ccccc1, which EC50 (dengue virus type 2) is on record?
Its EC50 is 5.1 µM.

What about the solubility thermodynamic at 48 h [6] of the same molecule?
Its solubility thermodynamic at 48 h is 13.1 µg/mL (≈ 28.6 µM).

What about the “Ratio CC50/EC50” value [1] of the same molecule?
The value was over 20.

What about the CC50 [2] of the same molecule?
The CC50 was over 100 µM.

What about the “Ratio CC50/EC50” value [3] of the same molecule?
The value was over 20.

And the solubility thermodynamic at 48 h [7]?
The solubility thermodynamic at 48 h was 8.2 µg/mL (≈ 17.9 µM).

What about the solubility thermodynamic at 48 h [8] of the same molecule?
The solubility thermodynamic at 48 h was 1.2 µg/mL (≈ 2.62 µM).

What about the EC50 [4] of the same molecule?
Its EC50 is over 50 µM.

What about the Stability [9] of the same molecule?
Its Stability is over 48 h.

What about the CC50 [5] of the same molecule?
Its CC50 is over 100 µM.

With CN1C(C(=O)Nc2ccccn2)=C(O)c2ccccc2S1(=O)=O [PIROXICAM] as the molecule, how does the solubility thermodynamic at 48 h [6] read?
Its solubility thermodynamic at 48 h is 7.3 µg/mL (≈ 22 µM).

For O=C(Nc1ccc(Oc2ncnc3cc(Cl)ccc23)nc1)c1ccc(-c2ccccn2)s1, which EC50 (dengue virus type 2) is on record?
The EC50 was 3.1 µM.

And the solubility thermodynamic at 48 h [6]?
The solubility thermodynamic at 48 h was 10.1 µg/mL (≈ 22 µM).

What about the “Ratio CC50/EC50” value [1] of the same molecule?
The value was over 32.

And the CC50 [2]?
Its CC50 is over 100 µM.

And the “Ratio CC50/EC50” value [3]?
Its value is over 32.

What about the solubility thermodynamic at 48 h [7] of the same molecule?
Its solubility thermodynamic at 48 h is 12.7 µg/mL (≈ 27.6 µM).

What about the solubility thermodynamic at 48 h [8] of the same molecule?
Its solubility thermodynamic at 48 h is 2.9 µg/mL (≈ 6.31 µM).

And the EC50 [4]?
Its EC50 is over 50 µM.

What about the Stability [9] of the same molecule?
Its Stability is over 48 h.

What about the CC50 [5] of the same molecule?
The CC50 was over 100 µM.
